These are literature values, as cited in article PMC7134594 (Chemistry & Biology, 2004).

Each structure is given as a SMILES string.

The test system of the data set is SARS-CoV.

Consider `CSC[C@H](NC(=O)COc1cccc2cnccc12)C(=O)N[C@@H](Cc1ccccc1)[C@H](O)C(=O)N1CSC[C@H]1C(=O)NC(C)(C)C` [KNI-272], for which the “inhibiting replication of SARS-CoV in vitro” value (from here on “inhibiting replication”) is “ineffective”.

Regarding `CC(C)c1nc(CN(C)C(=O)N[C@H](C(=O)N[C@@H](Cc2ccccc2)C[C@H](O)[C@H](Cc2ccccc2)NC(=O)OCc2cncs2)C(C)C)cs1` [ritonavir], the “inhibiting replication” value is “ineffective”.

Turning to `Cc1cccc(C)c1OCC(=O)N[C@@H](Cc1ccccc1)[C@@H](O)C[C@H](Cc1ccccc1)NC(=O)[C@H](C(C)C)N1CCCNC1=O` [lopinavir], the “inhibiting replication” value is on record as “ineffective”.

Regarding `NC(=O)c1ncn([C@@H]2O[C@H](CO)[C@@H](O)[C@H]2O)n1` [Ribavirin, ribavirin], the “anti-SARS-CoV activity in vitro” value was “anti-SARS-CoV activity in vitro, but at concentrations that are cytotoxic”.

Consider `Cc1c(O)cccc1C(=O)N[C@@H](CSc1ccccc1)[C@H](O)CN1C[C@H]2CCCC[C@H]2C[C@H]1C(=O)NC(C)(C)C` [nelfinavir], for which, where the note is “read-out: EC50, inhibition of SARS-CoV replication”, the EC50 is 48 nM.

For the compound `CC(C)(C)NC(=O)[C@@H]1CN(Cc2cccnc2)CCN1C[C@@H](O)C[C@@H](Cc1ccccc1)C(=O)N[C@H]1c2ccccc2C[C@H]1O` [indinavir], the “inhibiting replication” value is given as “ineffective”.

As to `CC(C)(C)NC(=O)[C@@H]1C[C@@H]2CCCC[C@@H]2CN1C[C@@H](O)[C@H](Cc1ccccc1)NC(=O)[C@H](CC(N)=O)NC(=O)c1ccc2ccccc2n1` [saquinavir], the “inhibiting replication” value is “ineffective”.

The term EC50 denotes the concentration that produces a half-maximal response.
